Data as given in ChEMBL document CHEMBL3227965, “Synthesis of 5-selenium-substituted uracil derivatives. Inhibition of thymidylate synthetase by 5-hydroseleno-2'-deoxyuridylate” (J Med Chem, 1979).
Calls of active or inactive are those of the source. The calls are words filed in the database; no cut-off is given here.

Tests used:
[1] = target: T1, Thymidylate synthase (Lactobacillus casei, UniProt P00469); assay: Reversible competitive inhibition of dichloromethotrexate-resistant Lactobacillus casei thymidylate synthase using […] as substrate by Dixon plot method; parameters: species or system Lacticaseibacillus casei; details: read-out: Ki(app)
T1 sequence (P00469 whole entry): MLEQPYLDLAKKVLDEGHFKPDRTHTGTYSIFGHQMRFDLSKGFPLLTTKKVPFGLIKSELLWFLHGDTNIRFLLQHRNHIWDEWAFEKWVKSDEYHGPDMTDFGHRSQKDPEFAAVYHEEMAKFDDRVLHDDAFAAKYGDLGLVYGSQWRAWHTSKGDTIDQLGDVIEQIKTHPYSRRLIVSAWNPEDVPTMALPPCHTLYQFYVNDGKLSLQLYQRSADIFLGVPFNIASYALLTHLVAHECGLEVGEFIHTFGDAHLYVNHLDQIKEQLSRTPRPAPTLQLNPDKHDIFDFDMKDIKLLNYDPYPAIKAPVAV

[2] = tested on: L1210; assay: Cytotoxicity against mouse L1210 cells assessed as growth inhibition at 5 x 10^-6 M; type: functional, cell-based
[3] = tested on: L1210; assay: Cytotoxicity against mouse L1210 cells assessed as growth inhibition at 10^-4 M; type: functional, cell-based
[4] = target: T1, Thymidylate synthase; assay: Inhibition of dichloromethotrexate-resistant Lactobacillus casei thymidylate synthase by Dixon plot method; parameters: species or system Lacticaseibacillus casei

## O=c1[nH]c(=O)n([C@H]2C[C@H](O)[C@@H](COP(=O)(O)O)O2)cc1[SeH]
[1]
  Ki: 60 nM

## O=c1[nH]c(=O)n([C@H]2C[C@H](O)[C@@H](CO)O2)cc1S
[2]
  Activity: Active

## O=c1[nH]c(=O)n([C@H]2C[C@H](O)[C@@H](CO)O2)cc1[Se][Se]c1cn([C@H]2C[C@H](O)[C@@H](CO)O2)c(=O)[nH]c1=O
[3]
  Activity: inactive

## O=c1[nH]c(=O)n([C@H]2C[C@H](O)[C@@H](COP(=O)(O)O)O2)cc1S
[4]
  Ki: 48 nM
